Assay results as given in patent US9738634B2, “Heterocyclic amide compound and herbicide” (SYNGENTA PARTICIPATIONS AG, priority 2013, dated 2017).

Experiments:
Format in all cases: in vivo
barnyard grass [1] = experiment: Test Example 2: weedkilling efficacy, growth period weed treatment in the submerged state; A: barnyard grass; details: treatment dosage 252 g/ha
Procedure, shortened: (§1)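 Weeds treated at the 1-2 leaf stage by application of diluted emulsion onto floodwater (4 cm depth, alluvial soil) at specified g/ha. Grown in greenhouse at 25 to 30° C; herbicidal effect rated three weeks after treatment.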

beet [2] = experiment: Test Example 3: soil treatment, effect on crop; f: beet; details: treatment dosage 315 g/ha
Procedure, shortened: (§2)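 Crop and weed responses were judged three weeks after a uniform surface spray of the water-diluted emulsion at the given g/ha rate. Seeds sat beneath about 1.5 cm of sterilized diluvial soil, and boxes stood in a greenhouse at 25 to 30° C.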

birds-eye speedwell = experiment: Test Example 4: weedkilling efficacy by foliar treatment; p: birds-eye speedwell; details: treatment dosage 315 g/ha
Procedure, shortened: (§3)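 Seeds are spot-sown into sterilized diluvial soil and covered with about 1.5 cm of soil. After 14 days' greenhouse growth at 25 to 30° C, plants are sprayed on stems and leaves with diluted emulsion at the stated g/ha rate, then scored at 3 weeks.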

wild oat [3] = experiment: Test Example 4: weedkilling efficacy by foliar treatment; G: wild oat; details: treatment dosage 315 g/ha
Procedure, shortened: as §3

bulrush [4] = experiment: Test Example 2: weedkilling efficacy, growth period weed treatment in the submerged state; B: bulrush; details: treatment dosage 252 g/ha
Procedure, shortened: as §1

Italian ryegrass [5] = experiment: Test Example 3: weedkilling efficacy through soil treatment; I: Italian ryegrass; details: treatment dosage 315 g/ha
Procedure, shortened: as §2

chickweed [6] = experiment: Test Example 3: weedkilling efficacy through soil treatment; N: chickweed; details: treatment dosage 315 g/ha
Procedure, shortened: as §2

redroot pigweed [7] = experiment: Test Example 3: weedkilling efficacy through soil treatment; L: redroot pigweed; details: treatment dosage 315 g/ha
Procedure, shortened: as §2

green foxtail [8] = experiment: Test Example 3: weedkilling efficacy through soil treatment; E: green foxtail; details: treatment dosage 315 g/ha
Procedure, shortened: as §2

corn [9] = experiment: Test Example 3: soil treatment, effect on crop; c: corn; details: treatment dosage 315 g/ha
Procedure, shortened: as §2

Italian ryegrass [10] = experiment: Test Example 4: weedkilling efficacy by foliar treatment; I: Italian ryegrass; details: treatment dosage 315 g/ha
Procedure, shortened: as §3

beet [11] = experiment: Test Example 4: foliar treatment, effect on crop; f: beet; details: treatment dosage 315 g/ha
Procedure, shortened: as §3

Indian mallow [12] = experiment: Test Example 4: weedkilling efficacy by foliar treatment; K: Indian mallow; details: treatment dosage 315 g/ha
Procedure, shortened: as §3

crabgrass [13] = experiment: Test Example 4: weedkilling efficacy by foliar treatment; D: crabgrass; details: treatment dosage 315 g/ha
Procedure, shortened: as §3

wheat [14] = experiment: Test Example 4: foliar treatment, effect on crop; e: wheat; details: treatment dosage 315 g/ha
Procedure, shortened: as §3

bulrush [15] = experiment: Test Example 1: weedkilling efficacy, preemergent weed treatment in the submerged state; B: bulrush; details: treatment dosage 252 g/ha
Procedure, shortened: (§4)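 Pre-emergence application onto floodwater (4 cm, alluvial soil) on the day of sowing, dose expressed as g/ha from diluted emulsion formulation. Weeds sown with 2.5-leaf transplanted rice as crop; plants held at 25–30 °C in greenhouse and scored against assessment criteria after 3 weeks.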

transplanted rice = experiment: Test Example 1: preemergent weed treatment in the submerged state, effect on crop; a: transplanted rice; details: treatment dosage 252 g/ha
Procedure, shortened: as §4

fig-leafed goosefoot [16] = experiment: Test Example 3: weedkilling efficacy through soil treatment; M: fig-leafed goosefoot; details: treatment dosage 315 g/ha
Procedure, shortened: as §2

barnyard grass [17] = experiment: Test Example 1: weedkilling efficacy, preemergent weed treatment in the submerged state; A: barnyard grass; details: treatment dosage 252 g/ha
Procedure, shortened: as §4

fig-leafed goosefoot [18] = experiment: Test Example 4: weedkilling efficacy by foliar treatment; M: fig-leafed goosefoot; details: treatment dosage 315 g/ha
Procedure, shortened: as §3

soybean [19] = experiment: Test Example 4: foliar treatment, effect on crop; d: soybean; details: treatment dosage 315 g/ha
Procedure, shortened: as §3

corn [20] = experiment: Test Example 4: foliar treatment, effect on crop; c: corn; details: treatment dosage 315 g/ha
Procedure, shortened: as §3

wheat [21] = experiment: Test Example 3: soil treatment, effect on crop; e: wheat; details: treatment dosage 315 g/ha
Procedure, shortened: as §2

soybean [22] = experiment: Test Example 3: soil treatment, effect on crop; d: soybean; details: treatment dosage 315 g/ha
Procedure, shortened: as §2

wild oat [23] = experiment: Test Example 3: weedkilling efficacy through soil treatment; G: wild oat; details: treatment dosage 315 g/ha
Procedure, shortened: as §2

oval-leafed pondweed [24] = experiment: Test Example 1: weedkilling efficacy, preemergent weed treatment in the submerged state; C: oval-leafed pondweed; details: treatment dosage 252 g/ha
Procedure, shortened: as §4

catchweed = experiment: Test Example 4: weedkilling efficacy by foliar treatment; O: catchweed; details: treatment dosage 315 g/ha
Procedure, shortened: as §3

oval-leafed pondweed [25] = experiment: Test Example 2: weedkilling efficacy, growth period weed treatment in the submerged state; C: oval-leafed pondweed; details: treatment dosage 252 g/ha
Procedure, shortened: as §1

directly sown rice [26] = experiment: Test Example 4: foliar treatment, effect on crop; b: directly sown rice; details: treatment dosage 315 g/ha
Procedure, shortened: as §3

chickweed [27] = experiment: Test Example 4: weedkilling efficacy by foliar treatment; N: chickweed; details: treatment dosage 315 g/ha
Procedure, shortened: as §3

green foxtail [28] = experiment: Test Example 4: weedkilling efficacy by foliar treatment; E: green foxtail; details: treatment dosage 315 g/ha
Procedure, shortened: as §3

directly sown rice [29] = experiment: Test Example 3: soil treatment, effect on crop; b: directly sown rice; details: treatment dosage 315 g/ha
Procedure, shortened: as §2

black-grass [30] = experiment: Test Example 4: weedkilling efficacy by foliar treatment; H: black-grass; details: treatment dosage 315 g/ha
Procedure, shortened: as §3

crabgrass [31] = experiment: Test Example 3: weedkilling efficacy through soil treatment; D: crabgrass; details: treatment dosage 315 g/ha
Procedure, shortened: as §2

redroot pigweed [32] = experiment: Test Example 4: weedkilling efficacy by foliar treatment; L: redroot pigweed; details: treatment dosage 315 g/ha
Procedure, shortened: as §3

black-grass [33] = experiment: Test Example 3: weedkilling efficacy through soil treatment; H: black-grass; details: treatment dosage 315 g/ha
Procedure, shortened: as §2

Indian mallow [34] = experiment: Test Example 3: weedkilling efficacy through soil treatment; K: Indian mallow; details: treatment dosage 315 g/ha
Procedure, shortened: as §2

With CC1=C(c2ccccc2)C(=O)N(C(C)(C)C(=O)Nc2cc(Cl)cc(Cl)n2)CO1 [B-2-34] the “A (barnyard grass) weedkilling efficacy grade” value (barnyard grass [1]) was 5 (weed kill ratio 90% or more, (practically complete withering)), the “f (beet) effect on crop grade” value (beet [2]) was 5 (weed kill ratio 90% or more, (practically complete withering)) and the “P (birds-eye speedwell) weedkilling efficacy grade” value (birds-eye speedwell) was 3 (weed kill ratio 40% or more, less than 70%). The “G (wild oat) weedkilling efficacy grade” value (wild oat [3]) was 5 (weed kill ratio 90% or more, (practically complete withering)), the “B (bulrush) weedkilling efficacy grade” value (bulrush [4]) was 5 (weed kill ratio 90% or more, (practically complete withering)) and the “I (Italian ryegrass) weedkilling efficacy grade” value (Italian ryegrass [5]) was 5 (weed kill ratio 90% or more, (practically complete withering)). For the same molecule, the “N (chickweed) weedkilling efficacy grade” value (chickweed [6]) was 5 (weed kill ratio 90% or more, (practically complete withering)), the “L (redroot pigweed) weedkilling efficacy grade” value (redroot pigweed [7]) was 5 (weed kill ratio 90% or more, (practically complete withering)) and the “E (green foxtail) weedkilling efficacy grade” value (green foxtail [8]) was 5 (weed kill ratio 90% or more, (practically complete withering)). For the same molecule, the “c (corn) effect on crop grade” value (corn [9]) was 2 (weed kill ratio 20% or more, less than 40%), the “I (Italian ryegrass) weedkilling efficacy grade” value (Italian ryegrass [10]) was 5 (weed kill ratio 90% or more, (practically complete withering)) and the “f (beet) effect on crop grade” value (beet [11]) was 4 (weed kill ratio 70% or more, less than 90%). The “K (Indian mallow) weedkilling efficacy grade” value (Indian mallow [12]) was 5 (weed kill ratio 90% or more, (practically complete withering)), the “D (crabgrass) weedkilling efficacy grade” value (crabgrass [13]) was 5 (weed kill ratio 90% or more, (practically complete withering)) and the “e (wheat) effect on crop grade” value (wheat [14]) was 1 (weed kill ratio 5% or more, less than 20%). The “B (bulrush) weedkilling efficacy grade” value (bulrush [15]) was 5 (weed kill ratio 90% or more, (practically complete withering)), the “a (transplanted rice) effect on crop grade” value (transplanted rice) was 0 (weed kill ratio 5% or less (practically no effect)) and the “M (fig-leafed goosefoot) weedkilling efficacy grade” value (fig-leafed goosefoot [16]) was 4 (weed kill ratio 70% or more, less than 90%). For the same molecule, the “A (barnyard grass) weedkilling efficacy grade” value (barnyard grass [17]) was 5 (weed kill ratio 90% or more, (practically complete withering)), the “M (fig-leafed goosefoot) weedkilling efficacy grade” value (fig-leafed goosefoot [18]) was 3 (weed kill ratio 40% or more, less than 70%) and the “d (soybean) effect on crop grade” value (soybean [19]) was 5 (weed kill ratio 90% or more, (practically complete withering)). For the same molecule, the “c (corn) effect on crop grade” value (corn [20]) was 3 (weed kill ratio 40% or more, less than 70%), the “e (wheat) effect on crop grade” value (wheat [21]) was 1 (weed kill ratio 5% or more, less than 20%) and the “d (soybean) effect on crop grade” value (soybean [22]) was 1 (weed kill ratio 5% or more, less than 20%). The “G (wild oat) weedkilling efficacy grade” value (wild oat [23]) was 5 (weed kill ratio 90% or more, (practically complete withering)), the “C (oval-leafed pondweed) weedkilling efficacy grade” value (oval-leafed pondweed [24]) was 5 (weed kill ratio 90% or more, (practically complete withering)) and the “O (catchweed) weedkilling efficacy grade” value (catchweed) was 0 (weed kill ratio 5% or less (practically no effect)). The “C (oval-leafed pondweed) weedkilling efficacy grade” value (oval-leafed pondweed [25]) was 5 (weed kill ratio 90% or more, (practically complete withering)), the “b (directly sown rice) effect on crop grade” value (directly sown rice [26]) was 5 (weed kill ratio 90% or more, (practically complete withering)) and the “N (chickweed) weedkilling efficacy grade” value (chickweed [27]) was 3 (weed kill ratio 40% or more, less than 70%). The “E (green foxtail) weedkilling efficacy grade” value (green foxtail [28]) was 5 (weed kill ratio 90% or more, (practically complete withering)), the “b (directly sown rice) effect on crop grade” value (directly sown rice [29]) was 5 (weed kill ratio 90% or more, (practically complete withering)) and the “H (black-grass) weedkilling efficacy grade” value (black-grass [30]) was 5 (weed kill ratio 90% or more, (practically complete withering)). For the same molecule, the “D (crabgrass) weedkilling efficacy grade” value (crabgrass [31]) was 5 (weed kill ratio 90% or more, (practically complete withering)), the “L (redroot pigweed) weedkilling efficacy grade” value (redroot pigweed [32]) was 4 (weed kill ratio 70% or more, less than 90%) and the “H (black-grass) weedkilling efficacy grade” value (black-grass [33]) was 5 (weed kill ratio 90% or more, (practically complete withering)). The “K (Indian mallow) weedkilling efficacy grade” value (Indian mallow [34]) was 5 (weed kill ratio 90% or more, (practically complete withering)).
